Reference: PubChem BioAssay (NCI)
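Tested at 5 concentrations; 48 h exposure; 96-well plates; endpoints linearly interpolated, else capped at highest concentration. GI50: concentration for 50% inhibition of growth. The concentration for full growth arrest is given as TGI.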

Experiments:
Experiment in all cases: inhibition of tumour cell growth, NCI panel, 48 h
[1] = tested on: HT29 colon
[2] = tested on: NCI-H23 lung
[3] = tested on: 786-0 renal
[4] = tested on: HOP-62 NSCLC
[5] = tested on: NCI-H460 lung
[6] = tested on: HCT-15 colon
[7] = tested on: HL-60(TB) leukemia
[8] = tested on: LOX IMVI melanoma
[9] = tested on: SNB-19 CNS
[10] = tested on: COLO 205 colon

| Compound | TGI [1] | TGI [2] | TGI [3] | TGI [4] | TGI [5] | TGI [6] | TGI [7] | TGI [8] | TGI [9] | TGI [10] | GI50 [1] | GI50 [2] | GI50 [4] | GI50 [5] | GI50 [6] |
| --- | --- | --- | --- | --- | --- | --- | --- | --- | --- | --- | --- | --- | --- | --- | --- |
| C=CCSC1=N/C(=C\c2ccc(Cl)cc2)C(=O)N1CC=C | > 100 µM | > 100 µM | > 100 µM | > 100 µM | > 100 µM | > 100 µM | 24.5 µM | > 100 µM | > 100 µM | > 100 µM |  |  |  |  |  |
| O=C1[C@H](O)[C@@H]2C(O)O[C@H]3[C@@H]2N1C[C@H]3[Si](c1ccccc1)(c1ccccc1)c1ccccc1 (some centres not stated) | > 100 µM | > 100 µM | > 100 µM | > 100 µM | > 100 µM | > 100 µM |  | > 100 µM | > 100 µM | > 100 µM |  |  |  |  |  |
| O=S1(=O)c2ccccc2Oc2ccc(C(/C=N/O)=N/O)cc21 | > 100 µM |  | > 100 µM | > 100 µM | > 100 µM | > 100 µM | 47.3 µM | 41.5 µM |  | > 100 µM |  |  |  |  |  |
| CN(C)CCNc1ccc2c(=O)n(CCN(C)C)c(=O)n3c4ccc(O)cc4c(=O)c1c23 | 0.229 µM | 0.186 µM | 0.156 µM |  | 0.174 µM | 4.35 µM |  | 0.217 µM | 0.729 µM | 0.099 µM |  |  |  |  |  |
| C1=C(c2ccccc2)SC(N2CCCCC2)S1 (configuration not stated) | > 100 µM | > 100 µM |  | > 100 µM | > 100 µM | > 100 µM | > 100 µM | > 100 µM | > 100 µM | > 100 µM |  |  |  |  |  |
| CCn1nc(C)c2c1C(=O)NCC(=O)N2 | > 100 µM | > 100 µM |  |  | > 100 µM | > 100 µM |  |  | > 100 µM | > 100 µM |  |  |  |  |  |
| Nc1n(CC(=O)c2ccccc2)nc2sc(-c3ccccc3)n[n+]12 | 51.3 µM | 59.5 µM | 48.4 µM | 52.5 µM | 30.5 µM | > 100 µM |  | > 100 µM | > 100 µM | 47 µM |  |  |  |  |  |
| C=CCn1c(=O)c(C)cn(COCCO)c1=O | > 100 µM | > 100 µM |  | > 100 µM | > 100 µM |  |  | > 100 µM | > 100 µM | > 100 µM |  |  |  |  |  |
| O=c1[nH]/c(=C/c2ccc(OCc3ccccc3)cn2)c(=O)[nH]/c1=C/c1ccccc1 | > 100 µM |  | > 100 µM | > 100 µM | > 100 µM | > 46.4 µM |  | > 100 µM | > 100 µM | > 25.4 µM |  |  |  |  |  |
| S=C1c2ccc(Cl)cc2-n2cnnc2C2CSCN12 (configuration not stated) | > 100 µM |  | > 100 µM | > 100 µM | > 100 µM | > 100 µM |  | > 100 µM | > 100 µM | > 100 µM |  |  |  |  |  |
| Cc1cc(C)nc(NS(=O)(=O)c2ccc(NC(=O)c3c4ccccc4nc4ccccc34)cc2)n1 | > 100 µM | > 100 µM | > 100 µM | > 100 µM | > 100 µM | > 100 µM |  | > 100 µM | > 100 µM | > 100 µM |  |  |  |  |  |
| CC(=O)Nc1ccc2c(C)c3c(nc2n1)[nH]c1ccccc13 | > 100 µM | 91.1 µM | > 100 µM | > 100 µM | 49 µM | 64.5 µM |  | 37.9 µM |  | 32 µM |  |  |  |  |  |
| CC(=O)NC1C(OCc2ccccc2)OC(CO)C(O)C1OCC(=O)N1CCCC1C(=O)N[C@@H](CCC(=O)NCCCCNc1c2ccccc2nc2cccc([N+](=O)[O-])c12)C(N)=O (some centres not stated) | 50.2 µM | 40.8 µM | > 100 µM | > 100 µM | 61.4 µM | > 100 µM |  |  | 62.4 µM | 46.4 µM |  |  |  |  |  |
| Cc1ccc(C)c(NC(=O)C(=O)C(C(=O)c2ccc3ccccc3c2)C2OC(=O)c3ccccc32)c1 (configuration not stated) | > 100 µM | 54.8 µM |  | 62.1 µM | 27.7 µM | 44.8 µM | 52 µM | 35.1 µM | 31.2 µM | 32.1 µM |  |  |  |  |  |
| c1ccc(/C(=N/Nc2nc3ccccc3s2)C2CCCCC2)nc1 | 16.1 µM | 21.8 µM | 21.9 µM | 23.5 µM | 26.1 µM | 15.8 µM |  | 54.3 µM | 30.6 µM | 13.1 µM |  |  |  |  |  |
| NC(=O)Nc1c(Cl)cc(S(N)(=O)=O)cc1Cl | > 100 µM | > 100 µM | > 100 µM | > 100 µM |  | > 100 µM | > 100 µM | > 100 µM | > 100 µM | > 100 µM |  |  |  |  |  |
| O=C(O)CC(Cc1ccccc1Cl)C(=O)O (configuration not stated) | > 100 µM | > 100 µM | > 100 µM | > 100 µM | > 100 µM | > 100 µM |  | > 100 µM | > 100 µM | > 100 µM |  |  |  |  |  |
| CN1CCC(CNc2cc(C3(C(=O)Nc4cc(C(=O)Nc5ccc(Cl)c(C(F)(F)F)c5)ccc4F)CC3)ncn2)CC1 | 5.09 µM | 4.57 µM |  | 3.97 µM | 5.38 µM | 4.19 µM |  |  |  |  | 1.73 µM | 1.94 µM | 2 µM | 2.13 µM | 1.6 µM |
| O=C(Nc1ccc(N2C(=O)CSC2c2ccccc2O)cc1)c1ccc(N2C(=O)CSC2c2ccccc2O)cc1 (configuration not stated) | > 100 µM | > 100 µM | > 100 µM | > 100 µM | > 100 µM | > 100 µM |  | > 100 µM | > 100 µM | > 100 µM |  |  |  |  |  |
| COc1cc2c(c(O)c1O)C(=O)C1CCC(=O)N1C2c1cccc2ccccc12 (configuration not stated) | > 50 µM | > 50 µM | > 50 µM | > 50 µM | > 50 µM | > 50 µM | > 50 µM |  | > 50 µM | > 50 µM |  |  |  |  |  |
| N=C1C(=N)c2ccccc2-c2ccccc21.[Cl-].[Ru+2].c1ccc(-c2ccccn2)nc1.c1ccc(-c2ccccn2)nc1 | > 100 µM | > 100 µM | > 100 µM | > 100 µM | > 100 µM | > 100 µM | > 100 µM | > 100 µM |  |  |  |  |  |  |  |
| CCCCCOc1ccc(C=Nc2ccc(CCc3ccc(N=Cc4ccc(OCCCCC)cc4)cc3)cc2)cc1 | > 100 µM | > 100 µM |  | > 100 µM | > 100 µM | > 100 µM | > 100 µM | > 100 µM | > 100 µM | > 100 µM |  |  |  |  |  |
| COc1ccc2c(c1)C(=O)CC1c3cnccc3C(=O)N21 (configuration not stated) | > 100 µM | > 100 µM | > 100 µM | > 100 µM | > 100 µM | > 100 µM |  | > 100 µM | > 100 µM | > 100 µM |  |  |  |  |  |
